Measured values taken from patent US6552073B1, “Compounds and methods of treating cell proliferative diseases” (Exonhit Therapeutics SA, priority 2002, dated 2003).
“Also recorded” adds a separate entry of the source.

Tests used:
[1] = tested on: NIH3T3 cells transfected with RasV12; assay: Colony formation assay in the presence of constitutively activated Ras (RasV12); format: cell-based, mouse; design: key to Colony formation: −: no effect of the compound was observed; +: an effect of the compound was observed; details: NIH3T3, neoR colonies
Procedure: c) Ras/Rac-dependant Signaling Pathway Analysis
The impact of the compounds on Ras and Rac signaling pathways was analysed with two reporter systems described by Imler (Nature 1988) and Lin (Science, 1995) respectively on one hand, and by a colony formation assay in the presence of constitutively activated Ras (RasV12) and Rac (RacV12) on the other hand. For this latter experiment, fifty percent confluent NIH3T3 cells in a 10 cm diameter petri dish were transfected with 0.5 μg pSV2-RasV12 or 0.5 μg pEXV RacV12 plasmids plus 100 ng of pSV2-neomycin plasmid using Lipofectamine-Plus reagent (Invitrogen) according to the manufacturer's instructions. Forty-eight hours later, cells were trypsinised, splitted to 1/3, and incubated in the presence of complete medium supplemented with 400 μg/ml geneticin (Invitrogen) and different doses of compound (1, 10, 17.5, 25 and 50 μM) until emerging resistant clones appear (2-3 weeks). The medium was renewed every 3 days. Colonies with a minimum of 50 cells were counted after staining with Fuschin 2%.

NIH3T3 = assay: Cytoskeleton analysis, actin staining; format: cell-based, mouse; design: key to Cell architecture modification, actin staining NIH3T3, ruffles (R) / Cell architecture modification, actin staining NIH3T3, focal complexes (FC): a decrease in cellular ruffles density was noted R−; an increase in focal complexes density was noted FC+
Procedure: (§1) Since major rearrangements of cytoskeleton are observed in tumor cells and since the small GTPases are known to regulate these events, analysis of actin cytoskeleton was performed. Subconfluent cells seeded onto coverslips were treated with different concentration of compound (1, 10, 17.5, 25 and 50 μM) or vehicle for 24 h, before being fixed in 4% formaldehyde for 15 min., permeabilized in 0.2% Triton X100 for 5 minutes and incubated in PowerBlock (Biogenex) for 10 min. Actin filaments were stained with 0.5 μg/ml fluorescein isothiocyanate (FITC)-labelled phalloidin for 1 hour. Analysis was performed using an inverted fluorescent microscope.

MDA-MB-231 cells = assay: Matrigel invasion assay (Boyden chamber); format: cell-based, human; details: for Invasion: MDA-MB-231, Boyden chamber, matrigel
Procedure: d) Migration and Matrigel Invasion Assay
Chemoinvasion assay was performed in Boyden chamber as described by Albini et al (Cancer Res, 1987) with some modifications. Polycarbonate membranes with 8μm pores were coated with matrigel (125 μg/cm^2) at room temperature for 48 h. Two hours before experiments, the matrix was […] with serum-free medium containing 0.1% BSA.
One day after seeding, 10^6 MDA-MB-231 cells were treated overnight with different concentrations of compounds (1, 10, 17.5, 25 and 50 μM). Cells were collected with Versene (Invitrogen), counted with trypan blue exclusion, rinsed twice in serum-free medium containing 0.1% BSA and resuspended in serum-free medium containing 0.1% BSA plus the appropriate concentration of compound. 10^5 treated cells were placed in the upper chamber. Medium containing 10% of FBS plus the appropriate concentration of compound was placed in the lower chamber as a chemoattractant. The Boyden chamber was incubated 6 hours at 37° C. before the cells were fixed and stained with Diff-Quick (Dade-Berhing). Cells on the upper part of the filters were removed using a cotton swab. Cells on the underside of the filters were visualised and counted under light microscope. The migration assay was performed the same way, using non-coated filters.

MDA231 = assay: Cytoskeleton analysis, actin staining; format: cell-based, human
Procedure: as §1

MMP-9 = assay: Gelatin zymography; format: cell-based, human; details: zymogram gel, MDA-MB-231 supernatant
Procedure: (§2) The activity of the metalloproteases MMP-2 and MMP-9 was assayed using gelatinolytic zymography according to Lambert (Surgery 1997). Briefly, MDA-MB-231 cells were incubated overnight in serum-free medium supplemented with ITS liquid supplement (Sigma) with different concentrations of compound (1, 10, 17.5, 25 and 50 μM). Supematant was collected and concentrated with Ultrafree 30 kDA (Millipore). Equal amount of proteins, as determined by Bradford measurement, were loaded onto a 10% w/v polyacrylamide gel containing 1% gelatin and 0.1% SDS (Novex). After electrophoresis, gels were washed in Novex Zymogram Renaturing buffer for 30 min at room temperature and incubated overnight at 37° C. in Novex Zymogram developing buffer. Gels were stained in Coomassie Brilliant Blue G-250, and the gelatinolytic activity was visualized as a clear band against the blue background of the stained gelatin.

MMP-2 = assay: Gelatin zymography; format: cell-based, human; details: zymogram gel, MDA-MB-231 supernatant
Procedure: as §2

| Compound | melting point [°C] | also measured |
| --- | --- | --- |
| CCOc1ccccc1OCCCCCOc1coc(C(=O)O)cc1=O [EH4701, 5-[5-(2-Ethyloxyphenyloxy)pentyloxy]-4-oxo-4H-pyran-2-carboxylic acid] | 141 to 142 |  |
| O=c1cc(CO)occ1OCCCCCOc1ccc(Cl)c(Cl)c1 [EH5500, 5-[5-(3,4-Dichlorophenyloxy)pentyloxy]-2-(hydroxymethyl)-4H-pyran-4-one] | 97 to 99 | Colony formation [1]: −; Cell architecture modification, actin staining NIH3T3, general observation (NIH3T3): affected the general morphology; also recorded: cell destructuration |
| O=C(O)c1cc(=O)c(OCCCCCOc2ccc(Cl)c(Cl)c2)co1 [EH6600, 5-[5-(3,4-Dichlorophenyloxy)pentyloxy]-4-oxo-4H-pyran-2-carboxylic acid] | 159 to 161 |  |
| O=c1cc(COCc2ccccc2)occ1OCCCCCOc1ccc(Cl)c(Cl)c1 [EH7701, 2-(Benzyloxymethyl)-5-[5-(3,4-dichlorophenyloxy)pentyloxy]-4H-pyran-4-one] | 82 to 83 | Invasion (MDA-MB-231 cells): No significant effect; Cell architecture modification, actin staining MDA231, general observation (MDA231): cell spreading |
| C/C=C/c1oc(CO)cc(=O)c1OCCCCCOc1ccccc1CCC [EH9301, (E)-6-(Hydroxymethyl)-2-(propen-1-yl)-3-[5-(2-propylphenyloxy)pentyloxy]-4H-pyran-4-one] | 67 to 68 | Invasion (MDA-MB-231 cells): No significant effect; Colony formation [1]: − |
| C/C=C/c1oc(C(=O)O)cc(=O)c1OCCCCCOc1ccc(Cl)c(Cl)c1 [EH10501, (E)-3-[5-(3,4-Dichlorophenyloxy)pentyloxy]-2-(propen-1-yl)-4-oxo-4H-pyran-6-carboxylic acid] | 118 to 119 |  |
| O=c1cc(CO)occ1OCCCCCOc1cccc(Cl)c1 [EH10600, 5-[5-(3-Chlorophenyloxy)pentyloxy]-2-(hydroxymethyl)-4H-pyran-4-one] | 87 to 88 | Colony formation [1]: −; Cell architecture modification, actin staining NIH3T3, general observation (NIH3T3): affected the general morphology; also recorded: cell destructuration |
| C/C=C/c1oc(C(=O)O)cc(=O)c1OCCCCCOc1ccccc1CCC [EH15301, (E)-2-(Propen-1-yl)-3-[5-(2-propylphenyloxy)pentyloxy]-4-oxo-4H-pyran-6-carboxvlic acid] | 145 to 146 |  |
| O=C(O)c1cc(=O)c(OCCCCCOc2cccc(Cl)c2)co1 [EH15700, 5-[5-(3-Chlorophenyloxy)pentyloxy]-4-oxo-4H-pyran-2-carboxylic acid] | 160 to 161 |  |
| C/C=C/c1oc(CO)cc(=O)c1OCCCCCOc1cccc(Cl)c1 [EH16201, (E)-3-[5-(3-Chlorophenyloxy)pentyloxy]-6-(hydroxymethyl)-2-(propen-1-yl)-4H-pyran-4-one] | 50 to 51 |  |
| CCCc1c(OCCCCCCOc2coc(CO)cc2=O)ccc(Cl)c1Cl [EH16701, 5-[6-(3,4-Dichloro-2-propylphenyloxy)hexyloxy]-2-(hydroxymethyl)-4H-pyran-4-one] | 86 to 87 | Invasion (MDA-MB-231 cells): No significant effect; Cell architecture modification, actin staining MDA231, general observation (MDA231): cell spreading |
| C/C=C/c1oc(C(=O)O)cc(=O)c1OCCCCCOc1ccc(Cl)cc1 [EH17401, (E)-3-[-5-(4-Chlorophenyloxy)pentyloxy]-2-(propen-1-yl)-4-oxo-4H-pyran-6-carboxylic acid] | 136 to 137 |  |
| O=c1cc(CO)occ1OCCCCOc1ccc(Cl)c(Cl)c1 [EH17700, 5-[4-(3,4-Dichlorophenyloxy)butyloxy]-2-(hydroxymethyl)-4H-pyran-4-one] | 107 to 108 | Colony formation [1]: − |
| C/C=C/c1oc(CO)cc(=O)c1OCCCCCOc1ccc(Cl)c(Cl)c1CCC [EH31101, (E)-3-[5-(3,4-Dichloro-2-propylphenyoxy)pentyloxy]-6-(hydroxymethyl)-2-(propen-1-yl)-4H-pyran-4-one] | 75 to 76 | concentration at which an increase in invasive properties was noted (MDA-MB-231 cells; MDA-MB-231 cells): 10 µM; concentration of dose-dependant inhibition of MMP-9 (MMP-9): 0.1 µM; concentration of dose-dependant inhibition of MMP-2 (MMP-2): 0.1 µM; Colony formation [1]: −; Cell architecture modification, actin staining NIH3T3, focal complexes (FC) (NIH3T3): FC+; Cell architecture modification, actin staining NIH3T3, ruffles (R) (NIH3T3): R− |

Continued, in another order:

| melting point [°C] | Compound | also measured |
| --- | --- | --- |
| 154 to 156 | O=C(O)c1cc(=O)c(OCCCCCOc2ccc(Cl)cc2)co1 [EH17600, 5-[5-(4-Chlorophenyloxy)pentyloxy]-4-oxo-4H-pyran-2-carboxylic acid] |  |
| 62 to 64 | CCCc1c(OCCCCCCCOc2coc(CO)cc2=O)ccc(Cl)c1Cl [EH17701, 5-[7-(3,4-Dichloro-2-propylphenyloxy)heptyloxy]-2-(hydroxymethyl)-4H-pyran-4-one] | Cell architecture modification, actin staining MDA231, general observation (MDA231): cell spreading |
| 116 to 117 | C/C=C/c1oc(C(=O)O)cc(=O)c1OCCCCCOc1cccc(Cl)c1 [EH18401, (E)-3-[5-(3-Chlorophenyloxy)pentyloxy]-2-(propen-1-yl)-4-oxo-4H-pyran-6-carboxylic acid] |  |
| 75 to 76 | CCOc1ccccc1OCCCCCOc1coc(CO)cc1=O [EH18601, 5-[5-(2-Ethyloxyphenyloxy)pentyloxy]-2-(hydroxymethyl)-4H-pyran-4-one] | Invasion (MDA-MB-231 cells): No significant effect |
| 182 to 183 | O=C(O)c1cc(=O)c(OCCCCOc2ccc(Cl)c(Cl)c2)co1 [EH20700, 5-[4-(3,4-Dichlorophenyloxy)butyloxy]-4-oxo-4H-pyran-2-carboxylic acid] |  |
| 161 to 162 | C/C=C/c1oc(C(=O)O)cc(=O)c1OCCCCCOc1ccc(Cl)c(Cl)c1CCC [EH22501, (E)-3-[5-(3,4-Dichloro-2-propylphenyloxy)pentyloxy]-2-(propen-1-yl)-4-oxo-4H-pyran-6-carboxylic acid] |  |
| 84 to 85 | C/C=C/c1oc(CO)cc(=O)c1OCCCCCOc1ccc(Cl)cc1 [EH26101, (E)-3-[5-(4-Chlorophenyloxy)pentyloxy]-6-(hydroxymethyl)-2(propen-1-yl)-4H-pyran-4-one] |  |
| 145 to 146 | CCCc1ccccc1OCCCCCOc1coc(C(=O)O)cc1=O [EH26900, 5-[5-(2-Propylphenyloxy)pentyloxy]-4-oxo-4H-pyran-2-carboxylic acid] |  |
| 155 to 156 | CCCc1c(OCCCCCOc2coc(C(=O)O)cc2=O)ccc(Cl)c1Cl [EH27900, 5-[5-(3,4-Dichloro-2-propylphenyloxy)pentyloxy]-4-oxo-4H-pyran-2-carboxylic acid] |  |
| 125 to 126 | O=C(NCc1ccccc1)c1cc(=O)c(OCCCCCOc2ccc(Cl)cc2)co1 [EH28900, N-Benzyl-5-[5-(4-Chlorophenyloxy)pentyloxy]-4-oxo-4H-pyran-2-carboxamide] |  |
| 100 to 101 | C/C=C/c1oc(CO)cc(=O)c1OCCCCCOc1ccc(Cl)c(Cl)c1 [EH30101] |  |
| 83 to 84 | CCCc1cc(Cl)c(Cl)cc1OCCCCCOc1coc(CO)cc1=O [EH30701, 5-[5-(4,5-Dichloro-2-propylphenyloxy)pentyloxy]-2-(hydroxymethyl)-4H-pyran-4-one] | Cell architecture modification, actin staining MDA231, general observation (MDA231): cell spreading |
